From patent US20260285850A1, “SUBSTITUTED OXAZOLIDINONES AND IMIDAZOLINONES AS HERBICIDES” (FMC CORPORATION, priority 2023, published 2026)

How the values were obtained:
Type in all cases: in vivo
[1] = test system: barnyardgrass (Echinochloa crus-galli); test: Test A postemergence application, visual injury rating 0-100; details: for Barnyardgrass plant response rating (0 to 100 scale): Postemergence
In short: (§1)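 Seeds sown in loam-sand blend got a preemergence directed soil spray, or emerged plants (2-10 cm, one- to two-leaf) got a postemergence spray, of compound in non-phytotoxic solvent with surfactant. After 10 days in greenhouse, injury rated visually versus untreated controls on a 0 (no effect) to 100 (complete control) scale.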

[2] = test system: palmer (palmer amaranth, palmer pigweed, Amaranthus palmeri); test: as above; details: for Amaranth, Palmer / Pigweed, Palmer plant response rating (0 to 100 scale): 0 is no effect, 100 is complete control
In short: as §1

[3] = test system: oat, wild (wild oat, Avena fatua); test: as above; details: for Oat, Wild plant response rating (0 to 100 scale): Postemergence
In short: as §1

[4] = test system: horseweed (Erigeron canadensis); test: as above; details: for Horseweed plant response rating (0 to 100 scale): Postemergence
In short: as §1

[5] = test system: ragweed (common ragweed, Ambrosia artemisiifolia); test: as above; details: for Ragweed plant response rating (0 to 100 scale): Postemergence
In short: as §1

[6] = test system: wheat (Triticum aestivum); test: as above; details: for Wheat plant response rating (0 to 100 scale): Postemergence
In short: as §1

[7] = test system: galium (catchweed bedstraw, Galium aparine); test: as above; details: for Galium plant response rating (0 to 100 scale): Postemergence
In short: as §1

soybean (Glycine max) [8] = test: as above; details: for Soybean plant response rating (0 to 100 scale): Postemergence
In short: as §1

[9] = test system: blackgrass (Alopecurus myosuroides); test: as above; details: for Blackgrass plant response rating (0 to 100 scale): Postemergence
In short: as §1

[10] = test system: ryegrass, Italian (italian ryegrass, Lolium multiflorum); test: as above; details: for Ryegrass, Italian plant response rating (0 to 100 scale): Postemergence
In short: as §1

kochia (Bassia scoparia) [11] = test: as above; details: for Kochia plant response rating (0 to 100 scale): Postemergence
In short: as §1

[12] = test system: green foxtail (Setaria viridis); test: as above; details: for Foxtail, Green plant response rating (0 to 100 scale): Postemergence
In short: as §1

corn (Zea mays) [13] = test: as above; details: for Corn plant response rating (0 to 100 scale): Postemergence
In short: as §1

[14] = test system: barnyardgrass (Echinochloa crus-galli); test: Test A preemergence soil spray, visual injury rating 0-100; details: 10 days
In short: as §1

[15] = test system: palmer (palmer amaranth, palmer pigweed, Amaranthus palmeri); test: as above; details: 10 days
In short: as §1

[16] = test system: oat, wild (wild oat, Avena fatua); test: as above; details: 10 days
In short: as §1

[17] = test system: ragweed (common ragweed, Ambrosia artemisiifolia); test: as above; details: 10 days
In short: as §1

[18] = test system: wheat (Triticum aestivum); test: as above; details: 10 days
In short: as §1

soybean (Glycine max) [19] = test: as above; details: 10 days
In short: as §1

[20] = test system: blackgrass (Alopecurus myosuroides); test: as above; details: 10 days
In short: as §1

[21] = test system: ryegrass, Italian (italian ryegrass, Lolium multiflorum); test: as above; details: 10 days
In short: as §1

kochia (Bassia scoparia) [22] = test: as above; details: 10 days
In short: as §1

[23] = test system: green foxtail (Setaria viridis); test: as above; details: 10 days
In short: as §1

corn (Zea mays) [24] = test: as above; details: 10 days
In short: as §1

[25] = test system: sedge, umbrella (small-flower umbrella sedge, Cyperus difformis); test: Test B flooded paddy test, visual plant response rating 0-100; details: 250 g ai/ha, Flood, applied to paddy water, evaluated after 13 days
In short: (§2)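 Paddy-water application: test compounds went directly into water flooded 3 cm above the soil surface, with plants at 2 leaves. After a 13-day greenhouse period, responses were judged by eye relative to controls; a dash marks an untested entry.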

rice (Oryza sativa) = test: as above; details: 250 g ai/ha, Flood, applied to paddy water, evaluated after 13 days
In short: as §2

[26] = test system: ducksalad (Heteranthera limosa); test: as above; details: 250 g ai/ha, Flood, applied to paddy water, evaluated after 13 days
In short: as §2

[27] = test system: barnyardgrass (Echinochloa crusgalli); test: as above; details: 250 g ai/ha, Flood, applied to paddy water, evaluated after 13 days
In short: as §2

[28] = 125 g ai/ha, 10 days, 0 is no effect, 100 is complete control
[29] = 500 g ai/ha, 10 days, 0 is no effect, 100 is complete control
[30] = 125 g ai/ha, 0 = no effect, 100 = complete control
[31] = 500 g ai/ha, 0 = no effect, 100 = complete control
[32] = 62 g ai/ha, postemergence, 10 days, 0 = no effect, 100 = complete control
[33] = 16 g ai/ha, greenhouse 10 days, 0 no effect, 100 complete control
[34] = 62 g ai/ha, 0 = no effect, 100 = complete control

SMILES: CSCCOC(=O)C1C=CC(NC(=O)C2(C)CN(c3cc(Cl)cc(Cl)c3)C(=O)O2)C1 (centres unmarked) [Compound 45]
- Barnyardgrass plant response rating (0 to 100 scale) [1, 28]: 100
- Barnyardgrass plant response rating (0 to 100 scale) [1, 29]: 100
- Amaranth, Palmer / Pigweed, Palmer plant response rating (0 to 100 scale) ([2]; Postemergence, 125 g ai/ha, 10 days): 100
- Amaranth, Palmer / Pigweed, Palmer plant response rating (0 to 100 scale) ([2]; Postemergence, 500 g ai/ha, 10 days): 100
- Oat, Wild plant response rating (0 to 100 scale) [3, 28]: 90
- Oat, Wild plant response rating (0 to 100 scale) [3, 29]: 90
- Horseweed plant response rating (0 to 100 scale) [4, 28]: 80
- Horseweed plant response rating (0 to 100 scale) [4, 29]: 80
- Ragweed plant response rating (0 to 100 scale) [5, 28]: 70
- Ragweed plant response rating (0 to 100 scale) [5, 29]: 80
- Wheat plant response rating (0 to 100 scale) [6, 28]: 90
- Wheat plant response rating (0 to 100 scale) [6, 29]: 90
- Galium plant response rating (0 to 100 scale) [7, 28]: 70
- Galium plant response rating (0 to 100 scale) [7, 29]: 70
- Soybean plant response rating (0 to 100 scale) (soybean (Glycine max) [8]; [28]): 90
- Soybean plant response rating (0 to 100 scale) (soybean (Glycine max) [8]; [29]): 90
- Blackgrass plant response rating (0 to 100 scale) [9, 28]: 100
- Blackgrass plant response rating (0 to 100 scale) [9, 29]: 100
- Ryegrass, Italian plant response rating (0 to 100 scale) [10, 28]: 80
- Ryegrass, Italian plant response rating (0 to 100 scale) [10, 29]: 80
- Kochia plant response rating (0 to 100 scale) (kochia (Bassia scoparia) [11]; [28]): 80
- Kochia plant response rating (0 to 100 scale) (kochia (Bassia scoparia) [11]; [29]): 80
- Foxtail, Green plant response rating (0 to 100 scale) [12, 28]: 80
- Foxtail, Green plant response rating (0 to 100 scale) [12, 29]: 90
- Corn plant response rating (0 to 100 scale) (corn (Zea mays) [13]; [28]): 100
- Corn plant response rating (0 to 100 scale) (corn (Zea mays) [13]; [29]): 100
- Barnyardgrass plant response rating (0 to 100 scale) [14, 30]: 100
- Barnyardgrass plant response rating (0 to 100 scale) [14, 31]: 100
- Amaranth, Palmer plant response rating (0 to 100 scale) [15, 30]: 100
- Amaranth, Palmer plant response rating (0 to 100 scale) [15, 31]: 100
- Oat, Wild plant response rating (0 to 100 scale) [16, 30]: 80
- Oat, Wild plant response rating (0 to 100 scale) [16, 31]: 90
- Ragweed plant response rating (0 to 100 scale) [17, 30]: 20
- Ragweed plant response rating (0 to 100 scale) [17, 31]: 70
- Wheat plant response rating (0 to 100 scale) [18, 30]: 90
- Wheat plant response rating (0 to 100 scale) [18, 31]: 90
- Soybean plant response rating (0 to 100 scale) (soybean (Glycine max) [19]; [30]): 30
- Soybean plant response rating (0 to 100 scale) (soybean (Glycine max) [19]; [31]): 60
- Blackgrass plant response rating (0 to 100 scale) [20, 30]: 90
- Blackgrass plant response rating (0 to 100 scale) [20, 31]: 90
- Ryegrass, Italian plant response rating (0 to 100 scale) [21, 30]: 90
- Ryegrass, Italian plant response rating (0 to 100 scale) [21, 31]: 90
- Kochia plant response rating (0 to 100 scale) (kochia (Bassia scoparia) [22]; [30]): 20
- Kochia plant response rating (0 to 100 scale) (kochia (Bassia scoparia) [22]; [31]): 100
- Foxtail, Green plant response rating (0 to 100 scale) [23, 30]: 90
- Foxtail, Green plant response rating (0 to 100 scale) [23, 31]: 100
- Corn plant response rating (0 to 100 scale) (corn (Zea mays) [24]; [30]): 20
- Corn plant response rating (0 to 100 scale) (corn (Zea mays) [24]; [31]): 60
- Plant response rating, Sedge, Umbrella (0 to 100 scale, 0 is no effect and 100 is complete control) [25]: 100
- Plant response rating, Rice (0 to 100 scale, 0 is no effect and 100 is complete control) (rice (Oryza sativa)): 15
- Plant response rating, Ducksalad (0 to 100 scale, 0 is no effect and 100 is complete control) [26]: 100
- Plant response rating, Barnyardgrass (0 to 100 scale, 0 is no effect and 100 is complete control) [27]: 75

SMILES: COC(=O)C1C=CC(NC(=O)C2(C)CN(c3cccc(OC(F)(F)F)c3)C(=O)O2)C1 (mixture of isomers) [Compound 101]
- Barnyardgrass plant response rating (0-100) [1, 32]: 90
- Barnyardgrass plant response rating (0 to 100 scale) [1, 33]: 60
- Pigweed, Palmer plant response rating (0-100) [2, 32]: 10
- Pigweed, Palmer plant response rating (0 to 100 scale) ([2]; Postemergence, 16 g ai/ha, greenhouse 10 days, 0 no effect, 100 complete control): 0
- Oat, Wild plant response rating (0-100) [3, 32]: 90
- Oat, Wild plant response rating (0 to 100 scale) [3, 33]: 70
- Horseweed plant response rating (0-100) [4, 32]: 10
- Horseweed plant response rating (0 to 100 scale) [4, 33]: 10
- Ragweed plant response rating (0-100) [5, 32]: 30
- Ragweed plant response rating (0 to 100 scale) [5, 33]: 0
- Wheat plant response rating (0-100) [6, 32]: 80
- Wheat plant response rating (0 to 100 scale) [6, 33]: 30
- Galium plant response rating (0-100) [7, 32]: 60
- Galium plant response rating (0 to 100 scale) [7, 33]: 50
- Soybean plant response rating (0-100) (soybean (Glycine max) [8]; [32]): 60
- Soybean plant response rating (0 to 100 scale) (soybean (Glycine max) [8]; [33]): 40
- Blackgrass plant response rating (0-100) [9, 32]: 90
- Blackgrass plant response rating (0 to 100 scale) [9, 33]: 80
- Ryegrass, Italian plant response rating (0-100) [10, 32]: 70
- Ryegrass, Italian plant response rating (0 to 100 scale) [10, 33]: 50
- Kochia plant response rating (0-100) (kochia (Bassia scoparia) [11]; [32]): 60
- Kochia plant response rating (0 to 100 scale) (kochia (Bassia scoparia) [11]; [33]): 10
- Foxtail, Green plant response rating (0-100) [12, 32]: 50
- Foxtail, Green plant response rating (0 to 100 scale) [12, 33]: 10
- Corn plant response rating (0-100) (corn (Zea mays) [13]; [32]): 90
- Corn plant response rating (0 to 100 scale) (corn (Zea mays) [13]; [33]): 50
- Barnyardgrass plant response rating ([14]; 16 g ai/ha, 0 to 100 scale): 0
- Barnyardgrass plant response rating (0-100) [14, 34]: 60
- Pigweed, Palmer plant response rating ([15]; 16 g ai/ha, 0 to 100 scale): 0
- Pigweed, Palmer plant response rating (0-100) [15, 34]: 0
- Oat, Wild plant response rating ([16]; 16 g ai/ha, 0 to 100 scale): 0
- Oat, Wild plant response rating (0-100) [16, 34]: 80
- Ragweed plant response rating ([17]; 16 g ai/ha, 0 to 100 scale): 0
- Ragweed plant response rating (0-100) [17, 34]: 10
- Wheat plant response rating ([18]; 16 g ai/ha, 0 to 100 scale): 0
- Wheat plant response rating (0-100) [18, 34]: 40
- Soybean plant response rating (soybean (Glycine max) [19]; 16 g ai/ha, 0 to 100 scale): 0
- Soybean plant response rating (0-100) (soybean (Glycine max) [19]; [34]): 0
- Blackgrass plant response rating ([20]; 16 g ai/ha, 0 to 100 scale): 0
- Blackgrass plant response rating (0-100) [20, 34]: 50
- Ryegrass, Italian plant response rating ([21]; 16 g ai/ha, 0 to 100 scale): 0
- Ryegrass, Italian plant response rating (0-100) [21, 34]: 80
- Kochia plant response rating (kochia (Bassia scoparia) [22]; 16 g ai/ha, 0 to 100 scale): 0
- Kochia plant response rating (0-100) (kochia (Bassia scoparia) [22]; [34]): 0
- Foxtail, Green plant response rating ([23]; 16 g ai/ha, 0 to 100 scale): 0
- Foxtail, Green plant response rating (0-100) [23, 34]: 0
- Corn plant response rating (corn (Zea mays) [24]; 16 g ai/ha, 0 to 100 scale): 0
- Corn plant response rating (0-100) (corn (Zea mays) [24]; [34]): 50
- Plant response rating, Sedge, Umbrella (0 to 100 scale, 0 is no effect and 100 is complete control) [25]: 0
- Plant response rating, Rice (0 to 100 scale, 0 is no effect and 100 is complete control) (rice (Oryza sativa)): 0
- Plant response rating, Ducksalad (0 to 100 scale, 0 is no effect and 100 is complete control) [26]: 0
- Plant response rating, Barnyardgrass (0 to 100 scale, 0 is no effect and 100 is complete control) [27]: 0
